Results reported in patent US10030006B2, “Coumarin based Hsp90 inhibitors with urea and ether substituents” (University of Kansas, priority 2013, dated 2018).
Like-named read-outs stand apart in the source and are kept apart here.

Tests used:
Type in all cases: cell-based
[1] = test system: SKBr3 (estrogen receptor negative, Her2 over-expressing breast cancer cells); assay: Anti-proliferation assay (MTS/PMS, 72 h), SKBr3
[2] = test system: MCF-7 (estrogen receptor positive breast cancer cells); assay: Anti-proliferation assay (MTS/PMS, 72 h), MCF-7
[3] = test system: HCT-116; assay: Anti-proliferation assay, HCT-116
Experimental: (§1) Cells were maintained in a 1:1 mixture of Advanced DMEM/F12 (Gibco) supplemented with non-essential amino acids, L-glutamine (2 mM), streptomycin (500 μg/mL), penicillin (100 units/mL), and 10% FBS. Cells were grown to confluence in a humidified atmosphere (37° C., 5% CO2), seeded (2000/well, 100 μL) in 96-well plates, and allowed to attach overnight. Compound at varying concentrations in DMSO (1% DMSO final concentration) was added, and cells were returned to the incubator for 72 h. At 72 h, the number of viable cells was determined using an MTS/PMS cell proliferation kit (Promega) per the manufacturer's instructions. Cells incubated in 1% DMSO were used at 100% proliferation, and values were adjusted accordingly. IC50 values were calculated from separate experiments performed in triplicate using GraphPad Prism.

[4] = test system: PC-3; assay: Anti-proliferation assay, PC-3; settings: Prostate Cancer
How it was run: (§2)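 Seeding density 2000 cells/well; 72 h treatment at varying concentrations, DMSO held at 1%. Viability determined by MTS/PMS kit, with vehicle-treated cells defining full proliferation, and IC50 calculated across separate triplicate experiments.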

[5] = test system: A-549; assay: Anti-proliferation assay, A-549
How it was run: as §2

[6] = test system: MDA1986; assay: Anti-proliferation assay, MDA1986; settings: HSNCC
How it was run: as §2

[7] = test system: JMAR; assay: Anti-proliferation assay, JMAR; settings: HSNCC
How it was run: as §2

[8] = test system: MDAMB231; assay: Anti-proliferation assay, MDAMB231; settings: Tri-Neg
How it was run: as §2

[9] = test system: DRO81-1; assay: Anti-proliferation assay, DRO81-1; settings: Thyroid
How it was run: as §2

[10] = test system: BCPAP; assay: Anti-proliferation assay, BCPAP; settings: Thyroid
Experimental: as §1

[11] = test system: MRC5; assay: Anti-proliferation assay, MRC5 (normal); settings: Homo sapiens
How it was run: as §2

[12] = test system: HMLE; assay: Anti-proliferation assay, HMLE (normal); settings: HMLE
How it was run: as §2

[13] = test system: SKBr3 and MCF-7 cell lines; assay: Anti-proliferative activity against both breast cancer cell lines (results in words)
Experimental: as §1
The anti-proliferative activity of these compounds is evaluated against two breast cancer cell lines, SKBr3 (estrogen receptor negative, Her2 over-expressing breast cancer cells) and MCF-7 (estrogen receptor positive breast cancer cells).

[14] = Table 6, substituted phenyl ureas
[15] = Homo sapiens, SK-BR-3, Table 7, prenylated phenyl ureas, Breast Cancer, read-out: IC50 SKBr3
[16] = Homo sapiens, MCF7, Table 7, prenylated phenyl ureas, Breast Cancer, read-out: IC50 MCF-3
[17] = Homo sapiens, HCT-116, Table 7, prenylated phenyl ureas
[18] = Homo sapiens, PC-3, Table 7, prenylated phenyl ureas
[19] = Homo sapiens, A549, Table 7, prenylated phenyl ureas
[20] = MDA1986, Table 7, prenylated phenyl ureas
[21] = JMAR, Table 7, prenylated phenyl ureas
[22] = Homo sapiens, MDA-MB-231, Table 7, prenylated phenyl ureas
[23] = Table 7, prenylated phenyl ureas
[24] = Homo sapiens, BCPAP, Table 7, prenylated phenyl ureas
[25] = MRC5, Table 7, prenylated phenyl ureas
[26] = Table 9, non-aryl ureas, Breast Cancer, read-out: IC50 SKBr3
[27] = Table 9, non-aryl ureas, Breast Cancer, read-out: IC50 MCF-3

| SMILES | IC50 [1, 26] | IC50 [2, 27] | IC50 ([3]; Table 9, non-aryl ureas) | IC50 ([4]; Table 9, non-aryl ureas) | IC50 ([5]; Table 9, non-aryl ureas) | IC50 ([6]; Table 9, non-aryl ureas) | IC50 ([7]; Table 9, non-aryl ureas) | IC50 ([8]; Table 9, non-aryl ureas) | IC50 ([9]; Table 9, non-aryl ureas) | IC50 ([10]; Table 9, non-aryl ureas) | also measured |
| --- | --- | --- | --- | --- | --- | --- | --- | --- | --- | --- | --- |
| COc1cc(NC(=O)Nc2cc3ccc(OC4CCN(C)CC4)c(C)c3oc2=O)cc(OC)c1OC [3,4,5-trimethoxyl, 1-(8-methyl-7-((1-methylpiperidin-4-yl)oxy)-2-oxo-2H-chromen-3-yl)-3-(3,4,5-trimethoxyphenyl)urea] |  |  |  |  |  |  |  |  |  |  | IC50 ([1]; Homo sapiens, SK-BR-3, Table 6, substituted phenyl ureas, Breast Cancer, read-out: IC50 SKBr3): 4260 nM; IC50 ([2]; Homo sapiens, MCF7, Table 6, substituted phenyl ureas, Breast Cancer, read-out: IC50 MCF-3): 1300 nM; IC50 ([3]; Homo sapiens, HCT-116, Table 6, substituted phenyl ureas): 209000 nM; IC50 ([4]; Homo sapiens, PC-3, Table 6, substituted phenyl ureas): 4500 nM; IC50 ([5]; Homo sapiens, A549, Table 6, substituted phenyl ureas): 13000 nM; IC50 ([6]; MDA1986, Table 6, substituted phenyl ureas): 9100 nM; IC50 ([7]; JMAR, Table 6, substituted phenyl ureas): 1700 nM; IC50 ([8]; Homo sapiens, MDA-MB-231, Table 6, substituted phenyl ureas): 2900 nM; IC50 [9, 14]: 14700 nM; IC50 ([10]; Homo sapiens, BCPAP, Table 6, substituted phenyl ureas): 1320 nM; IC50 ([11]; MRC5, Table 6, substituted phenyl ureas): > 25000 nM; IC50 [12, 14]: > 25000 nM |
| CC(C)=CCc1cc(C(=O)Nc2cc3ccc(OCCCNC45CC6CC(CC(C6)C4)C5)c(C)c3oc2=O)ccc1O [Compound 70j, N-(7-(3-((3S,5S,7S)-adamantan-1-ylamino)propoxy)-8-methyl-2-oxo-2H-chromen-3-yl)-4-hydroxy-3-(3-methylbut-2-en-1-yl)benzamide] |  |  |  |  |  |  |  |  |  |  | IC50 ([1]; Homo sapiens, SK-BR-3, Table 5, alkylether derivatives with cyclic N-substitutions, read-out: SKBr3): 310 ± 40 nM; IC50 ([2]; Homo sapiens, MCF7, Table 5, alkylether derivatives with cyclic N-substitutions, read-out: MCF-7): 320 ± 30 nM; anti-proliferative activity (in words) ([13]; SKBr3 and MCF-7, Tables 1-5): good anti-proliferative activity |
| Cc1c(OC2CCN(C)CC2)ccc2cc(NC(=O)Nc3ccccc3)c(=O)oc12 [H, 1-(8-methyl-7-((1-methylpiperidin-4-yl)oxy)-2-oxo-2H-chromen-3-yl)-3-phenylurea] |  |  |  |  |  |  |  |  |  |  | IC50 ([1]; Homo sapiens, SK-BR-3, amide versus urea linkage, read-out: IC50 for SKBr3): 770 nM; IC50 ([2]; Homo sapiens, MCF7, amide versus urea linkage, read-out: IC50 for MCF-3): 890 nM; increase in inhibition, urea versus amide linkage ([13]; text b189, two breast cancer cell lines): ~15 fold |
| CC(=O)Oc1ccc(NC(=O)Nc2cc3ccc(OC4CCN(C)CC4)c(C)c3oc2=O)cc1CC=C(C)C [OAc, 4-(3-(8-methyl-7-((1-methylpiperidin-4-yl)oxy)-2-oxo-2H-chromen-3-yl)ureido)-2-(3-methylbut-2-en-1-yl)phenyl acetate] |  |  |  |  |  |  |  |  |  |  | IC50 [1, 15]: 540 nM; IC50 [2, 16]: 490 nM; IC50 [3, 17]: 340 nM; IC50 [4, 18]: 380 nM; IC50 [5, 19]: 380 nM; IC50 [6, 20]: 1320 nM; IC50 [7, 21]: 870 nM; IC50 [8, 22]: 750 nM; IC50 [9, 23]: 530 nM; IC50 [10, 24]: 129 nM; IC50 [11, 25]: 1800 nM; IC50 [12, 23]: 7200 nM |
| COc1ccc(NC(=O)Nc2cc3ccc(OC4CCN(C)CC4)c(C)c3oc2=O)cc1CC=C(C)C [OMe, 1-(4-methoxy-3-(3-methylbut-2-en-1-yl)phenyl)-3-(8-methyl-7-((1-methylpiperidin-4-yl)oxy)-2-oxo-2H-chromen-3-yl)urea] |  |  |  |  |  |  |  |  |  |  | IC50 [1, 15]: 510 nM; IC50 [2, 16]: 370 nM; IC50 [3, 17]: 300 nM; IC50 [4, 18]: 230 nM; IC50 [5, 19]: 230 nM; IC50 [6, 20]: 850 nM; IC50 [7, 21]: 800 nM; IC50 [8, 22]: 830 nM; IC50 [9, 23]: 210 nM; IC50 [10, 24]: 1340 nM; IC50 [11, 25]: 2640 nM; IC50 [12, 23]: 6500 nM |
| COc1ccc(NC(=O)Nc2cc3ccc(OC4CCN(C)CC4)c(C)c3oc2=O)cc1-c1cccc(OC(C)=O)c1 [OMe, OAc, 2′-methoxy-5′-(3-(8-methyl-7-((1-methylpiperidin-4-yl)oxy)-2-oxo-2H-chromen-3-yl)ureido)-[1,1′-biphenyl]-3-yl acetate] |  |  |  |  |  |  |  |  |  |  | IC50 ([1]; Homo sapiens, SK-BR-3, Table 8, biphenyl ureas, Breast Cancer, read-out: IC50 SKBr3): 260 nM; IC50 ([2]; Homo sapiens, MCF7, Table 8, biphenyl ureas, Breast Cancer, read-out: IC50 MCF-3): 270 nM; IC50 ([3]; Homo sapiens, HCT-116, Table 8, biphenyl ureas): 3390 nM; IC50 ([4]; Homo sapiens, PC-3, Table 8, biphenyl ureas): 1040 nM; IC50 ([5]; Homo sapiens, A549, Table 8, biphenyl ureas): 540 nM; IC50 ([6]; MDA1986, Table 8, biphenyl ureas): 850 nM; IC50 ([7]; JMAR, Table 8, biphenyl ureas): 2200 nM; IC50 ([8]; Homo sapiens, MDA-MB-231, Table 8, biphenyl ureas): 390 nM; IC50 ([9]; Table 8, biphenyl ureas): 260 nM; IC50 ([10]; Homo sapiens, BCPAP, Table 8, biphenyl ureas): 16 nM; IC50 ([11]; MRC5, Table 8, biphenyl ureas): 3100 nM; IC50 ([12]; Table 8, biphenyl ureas): 1000 nM |
| Cc1c(OC2CCN(C)CC2)ccc2cc(NC(=O)NC(C)(C)C)c(=O)oc12 [drawing 157] | 3960 ± 140 nM | 1770 ± 260 nM | 12100 ± 610 nM | 4540 ± 460 nM | 4850 ± 290 nM | 21500 nM | 2100 nM | 3800 nM | > 25000 nM | 2570 nM |  |
| Cc1c(OC2CCN(C)CC2)ccc2cc(NC(=O)N3CCN(C)CC3)c(=O)oc12 [drawing 158] | > 50000 nM | 32100 ± 4780 nM | > 100000 nM | 115000 nM | 18300 ± 12000 nM | > 25000 nM | > 25000 nM | > 25000 nM | > 25000 nM | > 25000 nM |  |
| Cc1c(OC2CCN(C)CC2)ccc2cc(NC(=O)NCc3ccccc3)c(=O)oc12 [drawing 159] |  |  | 660 ± 150 nM | 870 ± 330 nM | 280 ± 30 nM | 14400 nM | > 25000 nM | 7900 nM | 14600 nM | 45 nM |  |
| Cc1c(OC2CCN(C)CC2)ccc2cc(NC(=O)N(C)Cc3ccccc3)c(=O)oc12 [drawing 160] |  |  | 183000 nM | 28700 ± 24600 nM | 138000 nM | 13400 nM | 7500 nM | > 25000 nM | 19500 nM | 8.4 nM |  |
| Cc1c(OC2CCN(C)CC2)ccc2cc(NC(=O)N(Cc3ccccc3)Cc3ccccc3)c(=O)oc12 [drawing 161] | 1210 ± 20 nM | 3360 ± 160 nM | 5950 ± 2920 nM | 1270 ± 90 nM | 3570 ± 550 nM | 3650 nM | 700 nM | 2800 nM | 1900 nM | 1810 nM |  |
| Cc1c(OC2CCN(C)CC2)ccc2cc(NC(=O)NC(c3ccccc3)c3ccccc3)c(=O)oc12 [drawing 162] | 490 ± 70 nM | 540 ± 10 nM | 960 ± 160 nM | 1120 ± 50 nM | 870 ± 210 nM | 7100 nM | 5900 nM | 4300 nM | 1300 nM | 5760 nM |  |
